# Laboratory results taken from patent US10125118B2, “Heteroaryl compounds and their use as therapeutic drugs” (Dong-A Socio Holdings Co., Ltd., priority 2015, dated 2018).
# Assays:
# [1] = tested on: CD8-MerTK in Ba/F3-CDM cells; assay: In cell MER kinase assay, Ba/F3-CDM cell proliferation without IL-3 (Celltiter-Glo); type: cell-based, murine; conditions: 48 hours compound treatment, read-out: Cell growth inhibition (GI50)
# In short: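 Ba/F3 cells, IL-3-dependent, transfected with CD8-MerTK and grown without IL-3 in DMEM/10% FBS. IL-3-supplemented Ba/F3 cells run in parallel as a cytotoxicity control.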
# [2] = target: human c-MER catalytic domain (Homo sapiens (Human), UniProt Q12866); assay: LanthaScreen TR-FRET kinase assay, c-MER; conditions: read-out: Mer TK inhibition (IC50); Biochemical IC50, TR-FRET, 10 uM ATP
# human c-MER catalytic domain, sequence (Q12866 587-858): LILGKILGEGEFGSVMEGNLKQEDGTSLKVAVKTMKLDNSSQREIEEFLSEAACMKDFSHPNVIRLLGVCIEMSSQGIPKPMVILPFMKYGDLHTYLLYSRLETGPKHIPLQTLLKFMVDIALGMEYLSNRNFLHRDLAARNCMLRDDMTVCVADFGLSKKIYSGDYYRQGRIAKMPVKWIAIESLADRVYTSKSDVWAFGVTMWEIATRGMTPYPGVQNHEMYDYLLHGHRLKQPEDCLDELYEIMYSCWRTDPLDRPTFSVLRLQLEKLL
SMILES,GI50 [1] [nM],IC50 [2] [nM]
"CN(C)C1CCN(Cc2ccc(-c3ccc(CO[C@H]4CCC[C@@H]4NC(=O)c4cc(-c5cnn(C)c5)cnc4N)cc3)cc2)C1 (stereo partly drawn) [Example 193, 2-amino-N-((1S,2S)-2-((4′-((3-(dimethylamino)pyrrolidin-1-yl)methyl)-[1,1′-biphenyl]-4-yl)methoxy)cyclopentyl)-5-(1-methyl-1H-pyrazol-4-yl)nicotinamide]",< 100,< 10
"CC(c1ccc(-c2ccc(CO[C@H]3CNC[C@@H]3NC(=O)c3cc(-c4cnn(C)c4)cnc3N)cc2)cc1)N1CCN(C)CC1 (stereo partly drawn) [Example 438, 2-amino-5-(1-methyl-1H-pyrazol-4-yl)-N-((3S,4S)-4-((4′-(1-(4-methylpiperazin-1-yl)ethyl)-[1,1′-biphenyl]-4-yl)methoxy)pyrrolidin-3-yl)-nicotinamide]",500 to 1000,< 10
"Cn1cc(-c2cnc(N)c(C(=O)N[C@H]3CCC[C@@H]3OCc3ccc(-c4ccc(CN5CCN(CCO)CC5)cc4)cc3)c2)cn1 [Example 181, 2-amino-N-((1S,2S)-2-((4′-((4-(2-hydroxyethyl)piperazin-1-yl)-methyl)-[1,1′-biphenyl]-4-yl)methoxy)cyclopentyl)-5-(1-methyl-1H-pyrazol-4-yl)-nicotinamide]",< 100,< 10
"Cc1cccc(-c2cnc(N)c(C(=O)N[C@H]3CCC[C@@H]3OCc3ccc(-c4ccc(CN5CCN(C)CC5)cc4)cc3)c2)c1 [Example 370, 2-amino-N-((1S,2S)-2-((4′-((4-methylpiperazin-1-yl)methyl)-[1,1′-biphenyl]-4-yl)methoxy)cyclopentyl)-5-(m-tolyl)nicotinamide]",< 100,< 10
"C[C@H](c1ccc(-c2ccc(CO[C@H]3CCC[C@@H]3NC(=O)c3cc(-c4cnn(C)c4)cnc3N)cc2)cc1)N1CCN(C)CC1 [Example 214, 2-amino-5-(1-methyl-1H-pyrazol-4-yl)-N-((1S,2S)-2-((4′-((R)-1-(4-methylpiperazin-1-yl)ethyl)-[1,1′-biphenyl]-4-yl)methoxy)cyclopentyl)nicotinamide]",< 100,< 10
"CNc1ccc(-c2ccc(CO[C@H]3CCC[C@@H]3NC(=O)c3cc(-c4cnn(C)c4)cnc3N)cc2)cc1 [Example 136, 2-amino-5-(1-methyl-1H-pyrazol-4-yl)-N-((1S,2S)-2-((4′-(methylamino)-[1,1′-biphenyl]-4-yl)methoxy)cyclopentyl)nicotinamide]",100 to 500,< 10
"Cc1ccc(CO[C@H]2CCC[C@@H]2NC(=O)c2cc(-c3ccc(C(=O)NC4CCN(C)CC4)cc3)cnc2N)cc1C [Example 318, 2-amino-N-((1S,2S)-2-((3,4-dimethylbenzyl)oxy)cyclopentyl)-5-(4-((1-methylpiperidin-4-yl)carbamoyl)phenyl)nicotinamide]",500 to 1000,< 10
"C[C@H](c1ccc(-c2ccc(CO[C@H]3CCC[C@@H]3NC(=O)c3cc(-c4cnn(C)c4)cnc3N)cc2)cc1)N1CCNCC1 [Example 213, 2-amino-5-(1-methyl-1H-pyrazol-4-yl)-N-((1S,2S)-2-((4′-((R)-1-(piperazin-1-yl)ethyl)-[1,1′-biphenyl]-4-yl)methoxy)cyclopentyl)nicotinamide]",100 to 500,< 10
"Cn1cc(-c2cnc(N)c(C(=O)N[C@H]3CNC[C@@H]3OCc3ccc(-c4ccc(C(C)(C)N5CCN(CCO)CC5)cc4)cc3)c2)cn1 [Example 440, 2-amino-N-((3S,4S)-4-((4′-(2-(4-(2-hydroxyethyl)piperazin-1-yl)propan-2-yl)-[1,1′-biphenyl]-4-yl)methoxy)pyrrolidin-3-yl)-5-(1-methyl-1H-pyrazol-4-yl)nicotinamide]",> 1000,< 10
CN1CCN(Cc2ccc(-c3ccc(CO[C@H]4CCC[C@@H]4NC(=O)c4cc(-c5cnn(C6CCOCC6)c5)cnc4N)cc3)cc2)CC1 [Example 380],< 100,< 10
"C[C@@H]1CN(Cc2ccc(-c3ccc(CO[C@H]4CCC[C@@H]4NC(=O)c4cc(-c5cnn(C)c5)cnc4N)cc3)cc2)CCN1C [Example 186, 2-amino-N-((1S,2S)-2-((4′-(((R)-3,4-dimethylpiperazin-1-yl)-methyl)-[1,1′-biphenyl]-4-yl)methoxy)cyclopentyl)-5-(1-methyl-1H-pyrazol-4-yl)-nicotinamide]",< 100,< 10
"Cn1cc(-c2cnc(N)c(C(=O)N[C@H]3COC[C@@H]3OCc3ccc(-c4ccc(CN5CCN(CCO)CC5)c(C(F)(F)F)c4)cc3)c2)cn1 [Example 452, 2-amino-N-((3S,4R)-4-((4′-((4-(2-hydroxyethyl)piperazin-1-yl)-methyl)-3′-(trifluoromethyl)-[1,1′-biphenyl]-4-yl)methoxy)tetrahydrofuran-3-yl)-5-(1-methyl-1H-pyrazol-4-yl)nicotinamide]",< 100,< 10
"Cn1cc(-c2cnc(N)c(C(=O)N[C@H]3CNC[C@@H]3OCc3ccc(-c4ccc(CN5CCN(CCO)CC5)cc4)cc3)c2)cn1 [Example 446, 2-amino-N-((3S,4S)-4-((4′-((4-(2-hydroxyethyl)piperazin-1-yl)-methyl)-[1,1′-biphenyl]-4-yl)methoxy)pyrrolidin-3-yl)-5-(1-methyl-1H-pyrazol-4-yl)-nicotinamide]",> 1000,< 10
"C[C@@H]1CN(Cc2ccc(-c3ccc(CO[C@H]4CCC[C@@H]4NC(=O)c4cc(-c5cnn(C)c5)cnc4N)cc3)cc2)C[C@H](C)N1C [Example 190, 2-amino-5-(1-methyl-1H-pyrazol-4-yl)-N-((1S,2S)-2-((4′-((cis-3,4,5-trimethylpiperazin-1-yl)methyl)-[1,1′-biphenyl]-4-yl)methoxy)cyclopentyl)-nicotinamide]",< 100,< 10
"C[C@@H]1CN(Cc2ccc(-c3ccc(CO[C@H]4CCC[C@@H]4NC(=O)c4cc(-c5cnn(C)c5)cnc4N)cc3)cc2)CCN1 [Example 185, 2-amino-5-(1-methyl-1H-pyrazol-4-yl)-N-((1S,2S)-2-((4′-(((R)-3-methylpiperazin-1-yl)methyl)-[1,1′-biphenyl]-4-yl)methoxy)cyclopentyl)nicotinamide]",100 to 500,< 10
"Cn1cc(-c2cnc(N)c(C(=O)N[C@H]3CCC[C@@H]3OCc3ccc(-c4ccc(N5CCNCC5)nc4)cc3)c2)cn1 [Example 147, 2-amino-5-(1-methyl-1H-pyrazol-4-yl)-N-((1S,2S)-2-((4-(6-(piperazin-1-yl)pyridin-3-yl)benzyl)oxy)cyclopentyl)nicotinamide]",100 to 500,< 10
"Cn1cc(-c2cnc(N)c(C(=O)N[C@H]3CNC[C@@H]3OCc3ccc(-c4ccc(CN5CCN(CCO)CC5)c(C(F)(F)F)c4)cc3)c2)cn1 [Example 444, 2-amino-N-((3S,4S)-4-((4′-((4-(2-hydroxyethyl)piperazin-1-yl)-methyl)-3′-(trifluoromethyl)-[1,1′-biphenyl]-4-yl)methoxy)pyrrolidin-3-yl)-5-(1-methyl-1H-pyrazol-4-yl)nicotinamide]",> 1000,< 10
"CC(c1ccc(-c2ccc(CO[C@H]3CN(C)C[C@@H]3NC(=O)c3cc(-c4cnn(C)c4)cnc3N)cc2)cc1)N1CCN(CCO)CC1 (stereo partly drawn) [Example 443, 2-amino-N-((3S,4S)-4-((4′-(1-(4-(2-hydroxyethyl)piperazin-1-yl)ethyl)-[1,1′-biphenyl]-4-yl)methoxy)-1-methylpyrrolidin-3-yl)-5-(1-methyl-1H-pyrazol-4-yl)nicotinamide]",< 100,< 10
"CN1CCN(Cc2ccc(-c3ccc(CO[C@H]4CCC[C@@H]4NC(=O)c4cc(-c5ccc(N6CCN(C)CC6)cc5)cnc4N)cc3)cc2)CC1 [Example 367, 2-amino-N-((1S,2S)-2-((4′-((4-methylpiperazin-1-yl)methyl)-[1,1′-biphenyl]-4-yl)methoxy)cyclopentyl)-5-(4-(4-methylpiperazin-1-yl)phenyl)-nicotinamide]",< 100,< 10
"Cn1cc(-c2cnc(N)c(C(=O)N[C@H]3CCC[C@@H]3OCc3ccc(-c4ccc(CN5CCC(N6CCCC6)CC5)cc4)cc3)c2)cn1 [Example 179, 2-amino-5-(1-methyl-1H-pyrazol-4-yl)-N-((1S,2S)-2-((4′-((4-(pyrrolidin-1-yl)piperidin-1-yl)methyl)-[1,1′-biphenyl]-4-yl)methoxy)cyclopentyl)-nicotinamide]",100 to 500,< 10
"Cc1cc(-c2ccc(CO[C@H]3CCC[C@@H]3NC(=O)c3cc(-c4cnn(C)c4)cnc3N)cc2)ccc1CN1CCN(C)CC1 [Example 198, 2-amino-5-(1-methyl-1H-pyrazol-4-yl)-N-((1S,2S)-2-((3′-methyl-4′-((4-methylpiperazin-1-yl)methyl)-[1,1′-biphenyl]-4-yl)methoxy)cyclopentyl)-nicotinamide]",< 100,< 10
"CN1C[C@H](NC(=O)c2cc(-c3cnn(C)c3)cnc2N)[C@@H](OCc2ccc(-c3ccc(CN4CCN(CCO)CC4)c(C(F)(F)F)c3)cc2)C1 [Example 445, 2-amino-N-((3S,4S)-4-((4′-((4-(2-hydroxyethyl)piperazin-1-yl)-methyl)-3′-(trifluoromethyl)-[1,1′-biphenyl]-4-yl)methoxy)-1-methylpyrrolidin-3-yl)-5-(1-methyl-1H-pyrazol-4-yl)nicotinamide]",< 100,< 10
"CC1CN[C@@H](C)CN1Cc1ccc(-c2ccc(CO[C@H]3CCC[C@@H]3NC(=O)c3cc(-c4cnn(C)c4)cnc3N)cc2)cc1 (stereo partly drawn) [Example 191, 2-amino-N-((1S,2S)-2-((4′-((trans-2,5-dimethylpiperazin-1-yl)methyl)-[1,1′-biphenyl]-4-yl)methoxy)cyclopentyl)-5-(1-methyl-1H-pyrazol-4-yl)nicotinamide]",100 to 500,< 10
